Values after ≈ are worked out from the molar mass of the structure shown.
How the values were obtained:
[1] = tested on: Plasmodium berghei; assay: Potency index, ratio of artesunic acid ED50 to test compound ED50 for Plasmodium berghei; format: functional
[2] = tested on: Plasmodium berghei; assay: Antimalarial activity against Plasmodium berghei infected in mouse; format: functional
[3] = tested on: Plasmodium berghei; assay: Antimalarial activity against Plasmodium berghei K173 infected in mouse; format: functional; conditions: Plasmodium berghei, K173
[4] = tested on: Plasmodium berghei; assay: Antimalarial activity against Plasmodium berghei infected in mouse assessed increase in survival time; format: functional
[5] = tested on: Plasmodium berghei; assay: Antimalarial activity against Plasmodium berghei infected in mouse assessed reduction in parasitemia measured after 4 days; format: functional; parameters: scale not given: the % may be the effect or the level left; conditions: time 4 day
[6] = tested on: Plasmodium berghei; assay: Antimalarial activity against Plasmodium berghei infected in mouse assessed cured animal rate measured after 25 days; format: functional; conditions: time 25 day
[7] = tested on: Plasmodium yoelii; assay: Antimalarial activity against Plasmodium yoelii BY265 infected in mouse assessed reduction in parasitemia at 4.4 to […], iv administered for 4 consecutive days; format: functional; parameters: scale not given: the % may be the effect or the level left
[8] = tested on: Plasmodium berghei; assay: Antimalarial activity against Plasmodium berghei infected in Swiss mouse at 2 mg/kg/day, po; format: functional
[9] = tested on: Plasmodium falciparum; assay: Antimalarial activity against Plasmodium falciparum W2; format: functional, organism-based
[10] = tested on: Plasmodium falciparum; assay: Antimalarial activity against Plasmodium falciparum RKL2; format: functional, organism-based
[11] = tested on: ADR5000 cell line; assay: Cytotoxicity against human CEM/ADR5000 cells; format: functional, cell-based
[12] = tested on: Plasmodium falciparum; assay: Antimalarial activity against Plasmodium falciparum 3D7; format: functional, organism-based
[13] = tested on: CCRF-CEM; assay: Cytotoxicity against human CCRF-CEM cells; format: functional, cell-based
[14] = tested on: Plasmodium berghei; assay: Antimalarial activity against Plasmodium berghei infected in mouse at less than 10 mg/kg, po; format: functional
[15] = tested on: Plasmodium yoelii; assay: Antimalarial activity against multidrug resistant Plasmodium yoelii infected in swiss mouse assessed as reduction in parasitaemia at 96 mg/kg, po; format: functional; parameters: scale not given: the % may be the effect or the level left
[16] = tested on: Plasmodium yoelii; assay: Antimalarial activity against multidrug resistant Plasmodium yoelii infected in swiss mouse assessed as increase in survival at 48 mg/kg, po after 28 days; format: functional; conditions: time 28 day
[17] = tested on: Plasmodium yoelii; assay: Antimalarial activity against multidrug resistant Plasmodium yoelii infected in swiss mouse assessed as reduction in parasitaemia at 48 mg/kg, po measured on day 4; format: functional; parameters: scale not given: the % may be the effect or the level left; conditions: time 4 day
[18] = tested on: Plasmodium falciparum; assay: Potency index, ratio of artemisinin IC50 to test compound IC50 for Plasmodium falciparum HB3; format: functional
[19] = tested on: Plasmodium falciparum; assay: Potency index, ratio of artemisinin IC50 to test compound IC50 for Plasmodium falciparum K1; format: functional
[20] = tested on: Plasmodium berghei; assay: Antimalarial activity against Plasmodium berghei ANKA infected in mouse at 30 mg/kg; format: functional
[21] = tested on: Plasmodium falciparum; assay: Antimalarial activity against Plasmodium falciparum; format: functional, organism-based
[22] = tested on: Plasmodium falciparum; assay: Potency index, ratio of artesunate IC50 to test compound IC50 for chloroquine resistant Plasmodium falciparum; format: functional
[23] = tested on: Plasmodium yoelii; assay: Antimalarial activity against multidrug resistant Plasmodium yoelii infected in swiss mouse assessed as increase in survival at 96 mg/kg, po after 28 days; format: functional; conditions: time 28 day
[24] = tested on: Plasmodium yoelii; assay: Antimalarial activity against multidrug resistant Plasmodium yoelii infected in swiss mouse assessed as reduction in parasitaemia at 96 mg/kg, po measured on day 4; format: functional; parameters: scale not given: the % may be the effect or the level left; conditions: time 4 day
[25] = tested on: Plasmodium falciparum; assay: Antimalarial activity against Plasmodium falciparum K1; format: functional, organism-based
[26] = tested on: Plasmodium chabaudi; assay: Antimalarial activity against Plasmodium chabaudi infected in mouse; format: functional
[27] = tested on: Plasmodium falciparum; assay: Antimalarial activity against Plasmodium falciparum NF54; format: functional, organism-based
[28] = tested on: Plasmodium falciparum; assay: Antimalarial activity against late stage Plasmodium falciparum gametocytes; format: functional, organism-based
[29] = tested on: Cytomegalovirus; assay: Antiviral activity against HCMV; format: functional, organism-based; conditions: Human betaherpesvirus 5
[30] = tested on: Plasmodium falciparum; assay: Potency index, ratio of chloroquine IC50 to test compound IC50 for Plasmodium falciparum INDO; format: functional
[31] = Selectivity index, ratio of IC50 for HEK293 cells to IC50 for Plasmodium falciparum INDO; format: toxicity; conditions: human, read-out: Ratio IC50
[32] = Cytotoxicity against HEK293 cells; format: toxicity, cell-based; conditions: human
[33] = tested on: Plasmodium falciparum; assay: Antimalarial activity against Plasmodium falciparum INDO; format: functional, organism-based
[34] = tested on: Plasmodium falciparum; assay: Potency index, ratio of artesunate IC50 to test compound IC50 for Plasmodium falciparum NF54; format: functional
[35] = tested on: Plasmodium falciparum; assay: Antimalarial activity against chloroquine-sensitive Plasmodium falciparum NF54; format: functional, organism-based
[36] = tested on: Plasmodium yoelii; assay: Potency index, ratio of artesunate ED90 to test compound ED90 for Plasmodium yoelii; format: functional
[37] = tested on: Plasmodium berghei; assay: Antimalarial activity against Plasmodium berghei infected in sc dosed mouse; format: functional; conditions: Plasmodium berghei
[38] = tested on: Plasmodium berghei; assay: Potency index, ratio of artesunate ED90 to test compound ED90 for Plasmodium berghei; format: functional
[39] = tested on: Plasmodium yoelii; assay: Antimalarial activity against Plasmodium yoelii infected in sc dosed mouse; format: functional
[40] = tested on: Plasmodium falciparum; assay: Antimalarial activity against Plasmodium falciparum D6; format: functional, organism-based
[41] = tested on: Plasmodium falciparum; assay: Antimalarial activity against ART-resistant Plasmodium falciparum harboring R539T mutant assessed as increase in survival at 700 nM; format: functional
[42] = tested on: Plasmodium falciparum; assay: Antimalarial activity against Plasmodium falciparum Dd2; format: functional, organism-based
[43] = tested on: Plasmodium falciparum; assay: Antimalarial activity against chloroquine resistant Plasmodium falciparum; format: functional, organism-based
[44] = Half life in human; format: ADME
[45] = tested on: Plasmodium falciparum; assay: Antimalarial activity against Plasmodium falciparum SGE2; format: functional, organism-based
[46] = tested on: Plasmodium berghei; assay: Antimalarial activity against Plasmodium berghei N strain infected in mouse at 30 mg/kg, ip administered once daily for 4 days; format: functional; conditions: time 4 day
[47] = tested on: Plasmodium falciparum; assay: Antimalarial activity against chloroquine sensitive Plasmodium falciparum FCR-3; format: functional, organism-based
[48] = tested on: Plasmodium falciparum; assay: Antimalarial activity against chloroquine-sensitive Plasmodium falciparum HB3; format: functional, organism-based
[49] = tested on: Plasmodium falciparum; assay: Antimalarial activity against Plasmodium falciparum HB3; format: functional, organism-based
[50] = read-out: ED50 (the source's name)

CC(O[C@H]1O[C@@H]2O[C@@]3(C)CC[C@H]4[C@H](C)CC[C@@H]([C@H]1C)[C@@]24OO3)c1ccc(CN2CCOCC2)c(O)c1 (stereo partly specified)
Ratio ED50 [1]: 10
ED50 ([2]; Plasmodium berghei): 0.64 mg/kg/day
ED50 [3]: 0.64 mg/kg/day

CCN(CC)Cc1cc(C2CCC3(CC2)OOC2(OO3)C3CC4CC(C3)CC2C4)ccc1O (stereo unspecified)
Time [4]: 27 days
Activity [5]: >99.7%
Activity [6]: 66%

CCCCCCCCCCCCCC[N+](C)(C)CCOC(=O)c1ccc(COC2O[C@@H]3O[C@]4(C)CC[C@H]5[C@H](C)CC[C@@H]([C@H]2C)[C@@]35OO4)cc1.[Br-] (stereo partly specified)
Activity [7]: >50%

CC(C)(N)CNC(=O)O[C@@H]1CCC[C@]2(C1)OOC1(O2)C2CC3CC(C2)CC1C3 (stereo partly specified)
Activity [8]: 100%
IC50 [9]: 1.8 nM

CC1(C)OOC(c2ccccc2)(c2ccccc2)OO1
IC50 [10]: 3910 ng/mL (≈ 14.3 µM)

C[C@H]1[C@H](OC(=O)CCC(=O)Nc2ccc3ncnc(Cc4ccc(Cl)c(Cl)c4)c3c2)O[C@@H]2O[C@]3(C)CC[C@H]4[C@H](C)CC[C@@H]1[C@@]24OO3
EC50 [11]: 500 nM
EC50 ([12]; read-out: EC50): 1.4 nM
EC50 [13]: 2800 nM

C[C@@H]1CC[C@H]2C(CN3CCN(CCO)CC3)=C(C(F)(F)F)O[C@@H]3O[C@]4(C)CC[C@@H]1[C@]32OO4
Activity [14]: 100%

C=C(c1ccc(-c2ccccc2)cc1)C1COC2(CCC(Nc3ccccc3)CC2)OO1 (stereo unspecified)
Activity [15]: 100%
Activity [16]: 60%
Activity [17]: 100%

COP(=O)(OCC[C@H]1O[C@@H]2O[C@]3(C)CC[C@H]4[C@H](C)CC[C@@H]([C@H]1C)[C@@]24OO3)OCC[C@H]1O[C@@H]2O[C@]3(C)CC[C@H]4[C@H](C)CC[C@@H]([C@H]1C)[C@@]24OO3
Ratio IC50 [18]: >50
Ratio IC50 [19]: >50

FC1CCN(CCOc2ccc(C3CCC4(CC3)OOC3(OO4)C4CC5CC(C4)CC3C5)cc2)CC1 (stereo unspecified)
IC50 [12]: 5.1 nM
Activity [20]: 99.65%

C[C@H]1[C@H](CCCO)O[C@@H]2O[C@]3(C)CC[C@H]4[C@H](C)CC[C@@H]1[C@@]24OO3
IC50 [21]: 0.23 ng/mL (≈ 0.000705 µM)
Ratio IC50 [22]: 5

C=C(c1ccccc1)C1COC2(OO1)C1CC3CC(C1)CC2C3 (stereo unspecified)
Activity [23]: 80%
Activity [24]: 96%

C[C@H]1[C@@H](CCc2ccc(C(=O)O)cc2)O[C@@H]2O[C@]3(C)CC[C@H]4[C@H](C)CC[C@@H]1[C@@]24OO3
EC50 [25, 50]: 0.6 ng/mL
Activity [26]: 98.7%
EC50 [12, 50]: 1.1 ng/mL

C[C@@H]1CC[C@H]2[C@@H](C)C(=O)N(S(=O)(=O)c3cccs3)[C@@H]3O[C@]4(C)CC[C@@H]1[C@@]23OO4
IC50 [27]: 5.68 nM
IC50 [25]: 6.27 nM
IC50 [28]: 8.6 nM
IC50 [9]: 4.26 nM

C[C@H]1[C@H](OC(=O)CCC(=O)OCCOC(=O)CC(=O)OCCOC(=O)CCC(=O)O[C@@H]2O[C@@H]3O[C@]4(C)CC[C@H]5[C@H](C)CC[C@@H]([C@H]2C)[C@@]35OO4)O[C@@H]2O[C@]3(C)CC[C@H]4[C@H](C)CC[C@@H]1[C@@]24OO3
EC50 [29]: 0.57 nM
EC50 ([12]; read-out: EC50): 1.4 nM

C=C(c1ccc2c(c1)CCCC2)C1COC2(CCCCC2)OO1 (stereo unspecified)
Ratio IC50 [30]: 11
selectivity ratio [31]: 589
CC50 [32]: 30100 nM
IC50 [33]: 51 nM

C[C@H]1[C@H](OC(=O)c2cccc3c2OCO3)O[C@@H]2O[C@]3(C)CC[C@H]4[C@H](C)CC[C@@H]1[C@@]24OO3
Ratio IC50 [34]: 2.3
IC50 [35]: 8.08 nM

C[C@H]1[C@H](Nc2ccc(F)cc2)O[C@@H]2O[C@]3(C)CC[C@H]4[C@H](C)CC[C@@H]1[C@@]24OO3
Ratio [36]: 13
ED90 [37]: 0.35 mg/kg
Ratio [38]: 13
ED90 [39]: 0.6 mg/kg
IC50 [40]: 0.64 ng/mL
IC50 [9]: 0.64 ng/mL

CC(C)(N)CNC(=O)C[C@H]1CC[C@]2(CC1)OO[C@]1(O2)C2CC3CC(C2)CC1C3 [OZ277]
Activity [2]: 67%
Activity [6]: 60%
Activity [41]: 0.01%

C[C@@H]1CC[C@H]2[C@@H](C)C(=O)O[C@@H]3O[C@@]4(C)CC[C@@H]1[C@]32OO4 [ARTEMISININ]
IC50 [42]: 13 nM
IC50 [43]: 0.001 mg/cm3
EC50 ([25]; read-out: EC50): 3.6 nM
half-life [44]: 2 h
IC50 [45]: 9 nM
ED50 [37]: 3 mg/kg
Activity [46]: 74.5%
IC50 [47]: 1.4 nM
IC50 [48]: 3.04 nM
IC50 [40]: 55 nM
IC50 [35]: 18.4 nM
IC50 [49]: 7 nM

Reference: ChEMBL document CHEMBL5244272 (Eur J Med Chem, 2021)
